Reference: patent publication EP4745135A1 (Gluetacs Therapeutics (Shanghai) Co., Ltd., priority 2023, dated 2025)

What was measured:
CK1α = molecular target: T1, CK1α (Homo sapiens, UniProt P48729+Q96SW2); assay: Western blot, degradation of substrate protein in hPBMCs; assay type: cell-based
T1 construct: effects of the compounds of the present disclosure on the expression of target proteins in cells; endogenous in cells; host or cells: human PBMCs (Milecell Biotechnologies)

IKZF1 = molecular target: T2, IKZF1 (Homo sapiens, UniProt Q13422+Q96SW2); assay: as above; assay type: cell-based
T2 construct: effects of the compounds of the present disclosure on the expression of target proteins in cells; endogenous in cells; host or cells: human PBMCs (Milecell Biotechnologies)

IKZF2 = molecular target: T3, IKZF2 (Homo sapiens, UniProt Q96SW2+Q9UKS7); assay: as above; assay type: cell-based
T3 construct: effects of the compounds of the present disclosure on the expression of target proteins in cells; endogenous in cells; host or cells: human PBMCs (Milecell Biotechnologies)

IKZF3 = molecular target: T4, IKZF3 (Homo sapiens, UniProt Q96SW2+Q9UKT9); assay: as above; assay type: cell-based
T4 construct: effects of the compounds of the present disclosure on the expression of target proteins in cells; endogenous in cells; host or cells: human PBMCs (Milecell Biotechnologies)

WEE1 = molecular target: T5, WEE1 (Homo sapiens, UniProt P30291+Q96SW2); assay: as above; assay type: cell-based
T5 construct: effects of the compounds of the present disclosure on the expression of target proteins in cells; endogenous in cells; host or cells: human PBMCs (Milecell Biotechnologies)

GSPT1 = assay: as above; assay type: cell-based, Human
[1] = molecular target: T6, human Cereblon WT GST-tagged protein (Homo sapiens, UniProt Q96SW2); assay: CRBN-binding affinity, HTRF (CEREBLON BINDING kit); settings: for inhibition at 0.5 µM: read-out: Inhibition Rate at 0.5 µM (%); for inhibition at 2 µM: read-out: Inhibition Rate at 2 µM (%)
T6 construct: purchased CISBIO 64BDCRBNPEH

[2] = tested on: Human multiple myeloma cell (MM.1S); assay: Tumor cell proliferation inhibition (CellTiter-Meiluncell luminescent cell viability assay); settings: for inhibition at 0.01 µM / inhibition at 0.5 µM: Homo sapiens, MM1.S, 96 h; for inhibition at 0.01 µM: read-out: Inhibition Rate at 10 nM (%); for inhibition at 0.5 µM: read-out: Inhibition Rate at 500 nM (%)
[3] = tested on: Human multiple myeloma peripheral blood B lymphocyte cell (RPMI-8226); assay: as above; settings: RPMI-8226, 96 h; for inhibition at 0.01 µM: read-out: Inhibition Rate at 10 nM (%); for inhibition at 0.5 µM: read-out: Inhibition Rate at 500 nM (%)
[4] = tested on: Human myeloid monocytic leukemia cell (MV-4-11); assay: as above; settings: MV4-11, 96 h; for inhibition at 0.01 µM: read-out: Inhibition Rate at 10 nM (%); for inhibition at 0.5 µM: read-out: Inhibition Rate at 500 nM (%)
[5] = tested on: Human acute T lymphocytic leukemia cell (Molt4); assay: as above; settings: MOLT-4, 96 h
[6] = 24 hours treatment, compounds at 50 nM and 500 nM (concentration behind the class not stated)
[7] = Western blot, 24 hours of compound treatment, compounds tested at 50 nM and 500 nM (concentration for the table not stated)

T2 sequence (Q13422 whole entry): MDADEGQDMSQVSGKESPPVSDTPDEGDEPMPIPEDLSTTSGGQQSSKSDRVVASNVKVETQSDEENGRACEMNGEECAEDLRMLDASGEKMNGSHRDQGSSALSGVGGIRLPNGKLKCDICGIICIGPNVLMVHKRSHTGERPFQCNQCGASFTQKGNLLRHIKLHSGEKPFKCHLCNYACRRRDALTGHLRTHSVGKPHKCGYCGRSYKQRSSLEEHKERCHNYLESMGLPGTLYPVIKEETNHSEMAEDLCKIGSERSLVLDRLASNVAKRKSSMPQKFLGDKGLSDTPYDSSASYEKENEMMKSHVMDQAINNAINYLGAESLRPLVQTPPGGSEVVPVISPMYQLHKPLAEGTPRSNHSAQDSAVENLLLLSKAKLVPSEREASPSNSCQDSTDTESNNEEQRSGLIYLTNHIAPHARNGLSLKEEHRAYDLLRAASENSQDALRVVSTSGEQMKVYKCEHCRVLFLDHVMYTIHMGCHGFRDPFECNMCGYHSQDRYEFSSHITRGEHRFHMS
T2 sequence (Q96SW2 whole entry): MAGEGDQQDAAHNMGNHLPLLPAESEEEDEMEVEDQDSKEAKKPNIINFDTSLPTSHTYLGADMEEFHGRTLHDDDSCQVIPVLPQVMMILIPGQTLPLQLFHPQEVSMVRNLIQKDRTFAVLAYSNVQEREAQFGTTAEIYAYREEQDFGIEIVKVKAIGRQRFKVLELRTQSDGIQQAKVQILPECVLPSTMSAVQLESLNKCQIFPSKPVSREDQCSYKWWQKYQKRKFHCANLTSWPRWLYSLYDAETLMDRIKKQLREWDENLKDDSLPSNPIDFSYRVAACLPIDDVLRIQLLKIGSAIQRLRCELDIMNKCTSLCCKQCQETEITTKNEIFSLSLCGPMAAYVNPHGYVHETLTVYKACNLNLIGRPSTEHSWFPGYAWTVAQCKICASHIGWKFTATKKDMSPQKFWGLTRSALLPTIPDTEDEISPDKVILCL
T2 sequence (Q16531 whole entry partner): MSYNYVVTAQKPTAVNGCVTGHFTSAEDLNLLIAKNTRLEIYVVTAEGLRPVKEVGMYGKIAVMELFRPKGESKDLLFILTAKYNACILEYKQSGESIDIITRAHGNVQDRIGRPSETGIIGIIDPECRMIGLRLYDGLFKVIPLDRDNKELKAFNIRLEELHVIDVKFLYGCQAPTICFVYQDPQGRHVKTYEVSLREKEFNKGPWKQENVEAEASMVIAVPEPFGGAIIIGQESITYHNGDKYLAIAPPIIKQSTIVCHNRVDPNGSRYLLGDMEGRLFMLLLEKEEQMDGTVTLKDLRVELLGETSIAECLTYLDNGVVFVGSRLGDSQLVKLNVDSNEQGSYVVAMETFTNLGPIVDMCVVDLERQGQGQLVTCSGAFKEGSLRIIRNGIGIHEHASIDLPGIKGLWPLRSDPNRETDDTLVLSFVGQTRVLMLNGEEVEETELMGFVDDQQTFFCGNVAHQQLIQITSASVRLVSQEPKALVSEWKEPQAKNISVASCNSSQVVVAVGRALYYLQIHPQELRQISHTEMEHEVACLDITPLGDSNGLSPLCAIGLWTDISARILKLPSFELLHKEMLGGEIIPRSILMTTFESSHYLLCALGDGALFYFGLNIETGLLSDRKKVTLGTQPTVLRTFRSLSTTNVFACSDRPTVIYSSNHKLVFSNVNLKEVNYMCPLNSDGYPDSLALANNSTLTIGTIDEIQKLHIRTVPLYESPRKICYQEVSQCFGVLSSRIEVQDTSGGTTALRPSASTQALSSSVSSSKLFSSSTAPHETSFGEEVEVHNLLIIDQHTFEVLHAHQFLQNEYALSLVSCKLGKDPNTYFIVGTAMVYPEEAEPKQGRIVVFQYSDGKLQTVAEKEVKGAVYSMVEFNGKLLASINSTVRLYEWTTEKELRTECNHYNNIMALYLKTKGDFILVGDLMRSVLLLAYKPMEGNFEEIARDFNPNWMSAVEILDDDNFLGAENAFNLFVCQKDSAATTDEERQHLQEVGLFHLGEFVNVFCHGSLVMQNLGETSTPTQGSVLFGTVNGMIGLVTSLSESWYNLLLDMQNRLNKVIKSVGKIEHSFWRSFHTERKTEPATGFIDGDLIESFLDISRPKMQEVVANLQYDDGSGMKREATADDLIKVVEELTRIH
T5 sequence (P30291 whole entry): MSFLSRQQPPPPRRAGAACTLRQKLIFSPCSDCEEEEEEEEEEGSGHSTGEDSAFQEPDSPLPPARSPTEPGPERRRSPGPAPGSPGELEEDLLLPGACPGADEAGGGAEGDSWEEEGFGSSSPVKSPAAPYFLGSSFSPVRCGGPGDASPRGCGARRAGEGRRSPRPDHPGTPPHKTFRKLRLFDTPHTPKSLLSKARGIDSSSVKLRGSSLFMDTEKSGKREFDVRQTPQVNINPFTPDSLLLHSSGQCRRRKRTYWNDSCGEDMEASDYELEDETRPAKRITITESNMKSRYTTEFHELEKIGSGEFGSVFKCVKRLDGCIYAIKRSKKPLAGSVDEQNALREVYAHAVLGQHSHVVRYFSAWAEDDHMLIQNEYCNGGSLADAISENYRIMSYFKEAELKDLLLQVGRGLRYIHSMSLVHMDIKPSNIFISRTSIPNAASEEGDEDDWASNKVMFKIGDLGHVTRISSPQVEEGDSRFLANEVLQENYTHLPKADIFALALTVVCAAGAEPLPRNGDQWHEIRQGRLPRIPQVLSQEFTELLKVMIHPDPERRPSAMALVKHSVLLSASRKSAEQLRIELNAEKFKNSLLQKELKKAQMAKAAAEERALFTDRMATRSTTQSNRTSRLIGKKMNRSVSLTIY
T5 sequence (Q96SW2 whole entry): as the sequence (Q96SW2 whole entry) above
T5 sequence (Q16531 whole entry partner): as the sequence (Q16531 whole entry partner) above
T4 sequence (Q9UKT9 whole entry): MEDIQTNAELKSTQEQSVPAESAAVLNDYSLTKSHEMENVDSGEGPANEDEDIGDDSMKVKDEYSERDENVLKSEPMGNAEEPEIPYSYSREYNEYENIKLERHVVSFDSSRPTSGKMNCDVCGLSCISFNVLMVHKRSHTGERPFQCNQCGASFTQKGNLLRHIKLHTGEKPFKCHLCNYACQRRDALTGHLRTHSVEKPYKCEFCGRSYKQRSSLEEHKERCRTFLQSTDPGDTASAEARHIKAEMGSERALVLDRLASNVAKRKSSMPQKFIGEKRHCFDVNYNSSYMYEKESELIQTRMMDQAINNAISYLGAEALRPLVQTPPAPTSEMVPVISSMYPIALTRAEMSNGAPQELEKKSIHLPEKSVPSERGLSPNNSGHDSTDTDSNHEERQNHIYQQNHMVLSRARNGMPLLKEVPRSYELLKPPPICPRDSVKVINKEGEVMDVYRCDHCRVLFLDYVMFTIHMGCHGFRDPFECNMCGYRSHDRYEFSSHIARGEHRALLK
T4 sequence (Q96SW2 whole entry): as the sequence (Q96SW2 whole entry) above
T4 sequence (Q16531 whole entry partner): as the sequence (Q16531 whole entry partner) above
T3 sequence (Q9UKS7 whole entry): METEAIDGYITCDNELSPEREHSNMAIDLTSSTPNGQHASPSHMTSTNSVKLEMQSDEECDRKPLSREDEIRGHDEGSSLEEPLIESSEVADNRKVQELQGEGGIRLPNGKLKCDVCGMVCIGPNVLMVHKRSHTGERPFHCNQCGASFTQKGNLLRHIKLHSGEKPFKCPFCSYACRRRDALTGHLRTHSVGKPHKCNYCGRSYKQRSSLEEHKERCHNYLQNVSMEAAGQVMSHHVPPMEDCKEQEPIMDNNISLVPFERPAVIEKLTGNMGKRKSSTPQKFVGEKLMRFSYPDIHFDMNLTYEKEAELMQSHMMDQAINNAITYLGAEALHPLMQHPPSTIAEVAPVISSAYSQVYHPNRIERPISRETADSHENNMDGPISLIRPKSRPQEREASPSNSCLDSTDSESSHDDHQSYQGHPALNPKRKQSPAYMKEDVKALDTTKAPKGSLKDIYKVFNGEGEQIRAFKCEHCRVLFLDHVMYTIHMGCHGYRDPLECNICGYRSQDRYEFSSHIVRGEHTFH
T3 sequence (Q96SW2 whole entry): as the sequence (Q96SW2 whole entry) above
T3 sequence (Q16531 whole entry partner): as the sequence (Q16531 whole entry partner) above
T6 sequence (Q96SW2 whole entry): as the sequence (Q96SW2 whole entry) above
T1 sequence (P48729 whole entry): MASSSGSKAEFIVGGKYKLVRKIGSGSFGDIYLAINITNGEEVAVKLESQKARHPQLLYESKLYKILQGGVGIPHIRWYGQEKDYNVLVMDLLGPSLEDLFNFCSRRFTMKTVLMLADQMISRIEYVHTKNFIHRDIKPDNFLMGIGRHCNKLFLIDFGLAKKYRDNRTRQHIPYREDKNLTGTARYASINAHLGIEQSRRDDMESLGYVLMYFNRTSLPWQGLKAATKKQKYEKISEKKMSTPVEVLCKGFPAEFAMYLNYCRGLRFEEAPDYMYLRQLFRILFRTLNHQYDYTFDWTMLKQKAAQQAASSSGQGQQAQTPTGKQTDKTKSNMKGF
T1 sequence (Q96SW2 whole entry): as the sequence (Q96SW2 whole entry) above
T1 sequence (Q16531 whole entry partner): as the sequence (Q16531 whole entry partner) above

N#Cc1ccc(N2CCN(Cc3ccc(COc4cccc5c4CN([C@H]4CCC(=O)NC4=O)C5=S)cc3)CC2)c(F)c1 [GT-05957, (S)-4-(4-(4-(((2-(2,6-dioxopiperidin-3-yl)-1-thioxoisoindolin-4-yl)oxy)methyl)benzyl)piperazin-1-yl)-3-fluorobenzonitrile]
CK1α substrate protein remaining % (CK1α; [6]): B (80%< substrate protein remaining %≤ 100%)
IKZF 1 substrate protein remaining % (IKZF1; [6]): A (0% ≤ substrate protein remaining % ≤ 80%)
IKZF2 substrate protein remaining % (IKZF2; [6]): A (0% ≤ substrate protein remaining % ≤ 80%)
IKZF3 substrate protein remaining % (IKZF3; [6]): A (0% ≤ substrate protein remaining % ≤ 80%)
Wee1 substrate protein remaining % (WEE1; [6]): B (80%< substrate protein remaining %≤ 100%)
GSPT1 substrate protein remaining % (GSPT1; [6]): A (0% ≤ substrate protein remaining % ≤ 80%)
IC50 ([1]; CRBN binding, HTRF, 3 hours at room temperature, read-out: HTRF IC50): 100 to 500 nM
inhibition at 0.01 µM [2]: 80 to 100%
inhibition at 0.5 µM [2]: 80 to 100%
inhibition at 0.01 µM [3]: 50 to 60%
inhibition at 0.5 µM [3]: 60 to 70%
inhibition at 0.01 µM [4]: 25 to 30%
inhibition at 0.5 µM [4]: 40 to 60%

O=C1CCC(N2Cc3c(CN4CCN(C(c5ccc(F)cc5)c5ccc(F)cc5)CC4)cccc3C2=S)C(=O)N1 (centres unmarked) [GT-08202, 3-(4-((4-(bis(4-fluorophenyl)methyl)piperazin-1-yl)methyl)-1-thioxoisoindolin-2-yl)piperidine-2,6-dione]
CK1α substrate protein remaining % (CK1α; [7]): B (80%< substrate protein remaining %≤ 100%)
IKZF 1 substrate protein remaining % (IKZF1; [7]): A (0% ≤ substrate protein remaining % ≤ 80%)
IKZF2 substrate protein remaining % (IKZF2; [7]): A (0% ≤ substrate protein remaining % ≤ 80%)
IKZF3 substrate protein remaining % (IKZF3; [7]): A (0% ≤ substrate protein remaining % ≤ 80%)
Wee1 substrate protein remaining % (WEE1; [7]): A (0% ≤ substrate protein remaining % ≤ 80%)
GSPT1 substrate protein remaining % (GSPT1; [7]): A (0% ≤ substrate protein remaining % ≤ 80%)
inhibition at 0.5 µM [1]: 30 to 40%
inhibition at 2 µM [1]: 60 to 80%
inhibition at 0.01 µM [3]: 20 to 30%
inhibition at 0.5 µM [3]: 40 to 50%
inhibition at 0.01 µM [4]: 30 to 40%
inhibition at 0.5 µM [4]: 40 to 60%

O=C1CCC(N2Cc3cc(CN4CCN(c5cccc(Br)c5)CC4)ccc3C2=S)C(=O)N1 (centres unmarked) [GT-08238, 3-(5-((4-(3-bromophenyl)piperazin-1-yl)methyl)-1-thioxoisoindolin-2-yl)piperidine-2,6-dione]
CK1α substrate protein remaining % (CK1α; [7]): B (80%< substrate protein remaining %≤ 100%)
IKZF 1 substrate protein remaining % (IKZF1; [7]): B (80%< substrate protein remaining %≤ 100%)
IKZF2 substrate protein remaining % (IKZF2; [7]): B (80%< substrate protein remaining %≤ 100%)
IKZF3 substrate protein remaining % (IKZF3; [7]): B (80%< substrate protein remaining %≤ 100%)
Wee1 substrate protein remaining % (WEE1; [7]): B (80%< substrate protein remaining %≤ 100%)
GSPT1 substrate protein remaining % (GSPT1; [7]): A (0% ≤ substrate protein remaining % ≤ 80%)
inhibition at 0.5 µM [1]: 53 to 60%
inhibition at 2 µM [1]: 80 to 100%
inhibition at 0.01 µM [2]: 70 to 80%
inhibition at 0.5 µM [2]: 70 to 80%
inhibition at 0.01 µM [3]: 20 to 30%
inhibition at 0.5 µM [3]: 50 to 60%
inhibition at 0.01 µM ([5]; read-out: Inhibition Rate at 10 nM (%)): 30 to 40%
inhibition at 0.5 µM ([5]; read-out: Inhibition Rate at 500 nM (%)): 80 to 100%
inhibition at 0.01 µM [4]: 5 to 10%
inhibition at 0.5 µM [4]: 80 to 100%

O=C1CCC(N2Cc3c(CN4CCN(CC5=C(c6ccc(F)cc6)CCCC5)CC4)cccc3C2=S)C(=O)N1 (centres unmarked) [GT-08293, 3-(4-((4-((4'-fluoro-3,4,5,6-tetrahydro-[1,1'-biphenyl]-2-yl)methyl)piperazin-1-yl)methyl)-1-thioxoisoindolin-2-yl)piperidine-2,6-dione]
CK1α substrate protein remaining % (CK1α; [7]): B (80%< substrate protein remaining %≤ 100%)
IKZF 1 substrate protein remaining % (IKZF1; [7]): B (80%< substrate protein remaining %≤ 100%)
IKZF2 substrate protein remaining % (IKZF2; [7]): B (80%< substrate protein remaining %≤ 100%)
IKZF3 substrate protein remaining % (IKZF3; [7]): B (80%< substrate protein remaining %≤ 100%)
Wee1 substrate protein remaining % (WEE1; [7]): A (0% ≤ substrate protein remaining % ≤ 80%)
GSPT1 substrate protein remaining % (GSPT1; [7]): B (80%< substrate protein remaining %≤ 100%)
inhibition at 0.5 µM [1]: 30 to 40%
inhibition at 2 µM [1]: 60 to 80%
inhibition at 0.01 µM [3]: 20 to 30%
inhibition at 0.5 µM [3]: 40 to 50%

O=C1CCC(N2Cc3c(CN4CCN(C(=O)C5=C(c6ccc(F)cc6)CCCC5)CC4)cccc3C2=S)C(=O)N1 (centres unmarked) [GT-08294, 3-(4-((4-(4'-fluoro-3,4,5,6-tetrahydro-[1,1'-biphenyl]-2-carbonyl)piperazin-1-yl)methyl)-1-thioxoisoindolin-2-yl)piperidine-2,6-dione]
CK1α substrate protein remaining % (CK1α; [7]): A (0% ≤ substrate protein remaining % ≤ 80%)
IKZF 1 substrate protein remaining % (IKZF1; [7]): B (80%< substrate protein remaining %≤ 100%)
IKZF2 substrate protein remaining % (IKZF2; [7]): B (80%< substrate protein remaining %≤ 100%)
IKZF3 substrate protein remaining % (IKZF3; [7]): B (80%< substrate protein remaining %≤ 100%)
Wee1 substrate protein remaining % (WEE1; [7]): B (80%< substrate protein remaining %≤ 100%)
GSPT1 substrate protein remaining % (GSPT1; [7]): B (80%< substrate protein remaining %≤ 100%)
inhibition at 0.5 µM [1]: 30 to 40%
inhibition at 2 µM [1]: 80 to 100%
inhibition at 0.01 µM [3]: 20 to 30%
inhibition at 0.5 µM [3]: 40 to 50%
inhibition at 0.01 µM [4]: 40 to 60%
inhibition at 0.5 µM [4]: 60 to 80%

O=C1CCC(N2Cc3c(CN4CCN(c5cccc6sccc56)CC4)cccc3C2=S)C(=O)N1 (centres unmarked) [GT-08364, 3-(4-((4-(benzo[b]thiophen-4-yl)piperazin-1-yl)methyl)-1-thioxoisoindolin-2-yl)piperidine-2,6-dione]
CK1α substrate protein remaining % (CK1α; [7]): B (80%< substrate protein remaining %≤ 100%)
IKZF 1 substrate protein remaining % (IKZF1; [7]): B (80%< substrate protein remaining %≤ 100%)
IKZF2 substrate protein remaining % (IKZF2; [7]): B (80%< substrate protein remaining %≤ 100%)
IKZF3 substrate protein remaining % (IKZF3; [7]): B (80%< substrate protein remaining %≤ 100%)
Wee1 substrate protein remaining % (WEE1; [7]): A (0% ≤ substrate protein remaining % ≤ 80%)
GSPT1 substrate protein remaining % (GSPT1; [7]): A (0% ≤ substrate protein remaining % ≤ 80%)
inhibition at 0.5 µM [1]: 40 to 53%
inhibition at 2 µM [1]: 80 to 100%
inhibition at 0.01 µM [2]: 40 to 50%
Inhibition Rate at 500 nM (%) ([2]; MM.1S, 500 nM, 96 hours): la8
inhibition at 0.01 µM [3]: 20 to 30%
inhibition at 0.5 µM [3]: 40 to 50%

O=C1CCC(N2Cc3cc(CN4CCN(c5cc(Cl)cc(Cl)c5)CC4)ccc3C2=S)C(=O)N1 (centres unmarked) [GT-08624, 3-(5-((4-(3,5-dichlorophenyl)piperazin-1-yl)methyl)-1-thioxoisoindolin-2-yl)piperidine-2,6-dione]
CK1α substrate protein remaining % (CK1α; [7]): B (80%< substrate protein remaining %≤ 100%)
IKZF 1 substrate protein remaining % (IKZF1; [7]): B (80%< substrate protein remaining %≤ 100%)
IKZF2 substrate protein remaining % (IKZF2; [7]): B (80%< substrate protein remaining %≤ 100%)
IKZF3 substrate protein remaining % (IKZF3; [7]): B (80%< substrate protein remaining %≤ 100%)
Wee1 substrate protein remaining % (WEE1; [7]): B (80%< substrate protein remaining %≤ 100%)
GSPT1 substrate protein remaining % (GSPT1; [7]): A (0% ≤ substrate protein remaining % ≤ 80%)
inhibition at 0.5 µM [1]: 30 to 40%
inhibition at 2 µM [1]: 80 to 100%
inhibition at 0.01 µM [2]: 20 to 30%
inhibition at 0.5 µM [2]: 80 to 100%
inhibition at 0.01 µM [3]: 10 to 20%
inhibition at 0.5 µM [3]: 60 to 70%
inhibition at 0.01 µM [4]: 18 to 25%
inhibition at 0.5 µM [4]: 80 to 100%
